One test has as its system NR4A3. Description: NR4A3 ubiquitination after OGD-R in vascular endothelial cells (immunoprecipitation with anti-ubiquitin antibodies). The test is classed as cell-based. As for the experimental part:
HUVEC cells were cultured in modified DMEM medium containing 10% fetal bovine serum. When the cells reached about 80% confluence, the cells were digested with 0.25% trypsin, and then pipetted evenly with modified DMEM containing 10% […]. The cell concentration was adjusted to 1×10^5 cells/mL, and the cells were seeded at 400 uL/well in a 24-well plate, and the experiment was carried out when the cells grew to about 70% confluence. RAOEC cells were cultured in high-glucose DMEM medium containing 10% fetal bovine serum, and the seeding conditions were the same as those of HUVEC. During the OGD-R injury treatment, the hypoxia workstation was set to have an oxygen concentration of 1% (1% O2, 5% CO2, 94% N2), a temperature of 37° C., and a humidity of 85%. A sugar-free DMEM medium was placed in the hypoxia workstation for pre-hypoxia for 3 hours. The medium in the culture plate was aspirated, and the plate was washed twice with preheated sugar-free DMEM medium, and 100 uL of sugar-free DMEM medium was added to each well. The culture plate was placed in the hypoxia workstation, and 300 uL of pre-hypoxic sugar-free DMEM medium was added to each well, and then the culture plate was placed in the hypoxia workstation for additional hypoxia for 4 hours. Restoration was then performed. The culture plate was taken out, and the sugar-free DMEM medium was replaced with 400 uL of normal medium containing 10% fetal bovine serum, and then the plate was placed in a 37° C. 5% CO2 cell incubator for culturing for 24 hours or a specified time period. For the cells in the normal group, it was only replaced with 400 uL of new normal medium containing 10% fetal bovine serum. […]
The cells were washed twice with pre-cooled PBS, then scraped off with a cell scraper and transferred to a 1.5 mL centrifuge tube, and centrifugation was performed at 4° C. and 1000 g for 5 minutes. […] Each protein sample was then quantified using the BCA protein quantification kit. After protein quantification, IP lysis buffer was used to adjust the protein concentration of each sample to 1 mg/mL. […]

For the next test, the system named is PFKFB3. The test can be described thus: Glutamate-induced PFKFB3 expression in primary cerebellar granule neurons (Western blot). The format is cell-based, mice. The settings on record: 10 μM, pre-incubation 20 mins; 200 μM glutamate for 5 mins and 15 mins. As for the experimental part: The cells were obtained from SD P7-8 neonatal mice. The cerebellum was taken, and the meninges and blood vessels were removed using microtweezers; the isolated cerebellar tissue was transferred to another dish containing dissection solution. The tissue was cut into pieces as small as possible using a tissue scissor. Digestion: The tissue in pieces was added into 7 mL of 0.25% trypsin digestive solution with a pipet, and was digested at 37° C. for 15 mins; the bench surface was cleaned and the instruments were washed. The container was turned upside down several times every five minutes to bring the tissue into better contact with the digestive solution. End of digestion: After the digestion, it can be seen that the tissue was sticked together and suspended in the liquid due to cell disruption and release of DNA. The digestion was terminated by adding 3 mL of […] 10% FBS DMEM medium. The container was turned upside down several times, and it can be observed that the remaining tissue dispersed due to DNA hydrolysis. Centrifugation was performed at 1000 rpm for 5 mins. As much supernatant as possible was carefully removed. Collection of single cell suspension: 7 mL of DNase-containing 10% FBS DMEM medium was taken with a pipet, by which the tissue pellet was gently pipeted. […] The cells were counted with a hand-held cell counter, and the seeding density was 4.0-5.0×10^5 cells/mL. […]
On the technique in general: A western blot detects proteins with antibodies after separation by electrophoresis.

The values below come from US12594282B2, “Use of small molecule compounds in the treatment of diseases mediated by lung epithelial cell injury and/or vascular endothelial cell injury” (Guangzhou Cellprotek Pharmaceutical Co., Ltd., priority 2020, dated 2026).

For the compound `C[C@@]12CCCC1C1C[C@@H](O)[C@]3(O)C[C@@H](O)CC[C@]3(C)C1CC2` (stereo partly drawn) [YC-6, 5α-androst-3β,5,6β-triol], the “ubiquitination of NR4A3 on co-administration with MG132” value in the test with NR4A3 (YC-6 10 μM with MG132 100 nM after restoration) was “did not significantly increase the ubiquitination of NR4A3”. Further, the “ubiquitination modification of NR4A3 induced by restoration” value with NR4A3 (YC-6 10 μM, MG132 100 nM, given at restoration) is listed as “could inhibit the ubiquitination of NR4A3 induced by restoration”. The “glutamate-induced up-regulation of intracellular PFKFB3 expression” value with PFKFB3 is “significantly inhibited this rapid increase”.
